Assay results from article PMC6345779, “Hypoculoside, a sphingoid base-like compound from Acremonium disrupts the membrane integrity of yeast cells” (Scientific Reports, 2019).

How the values were obtained:
[1] = tested on: Saccharomyces cerevisiae diploid wild-type strain (BY4743); assay: Growth inhibition of wild type Saccharomyces cerevisiae in YPD medium (96-well, OD600); assay type: cell-based
Method: Figure 5 Structure-activity studies of hypoculoside. (A) Wild type strain (BY4743), vps35Δ, pep8Δ, vps20Δ, vps27Δ and vps36Δ strains were grown in YPD medium in the presence of hypoculoside or hypoculine at the indicated concentrations. Normalized growth at the different concentrations of hypoculoside and hypoculine tested after 24 hours of incubation at 30 °C is plotted for each strain. (B) Wild type strain (BY4743), vps35Δ, pep8Δ, vps20Δ, vps27Δ and vps36Δ strains were grown in YPD medium in the presence of hypoculoside or phytosphingosine or dihydrosphingosine at the indicated concentrations. Normalized growth at the different concentrations of hypoculoside, phytosphingosine and dihydrosphingosine tested after 24 hours of incubation at 30 °C is plotted for each strain.
Susceptibility of Candida albicans strain SC5314 to hypoculoside and amphotericin B was determined by a broth microdilution assay using Clinical Laboratory Standards Institute (CLSI) guidelines. Cells grown to exponential phase in YPD medium (1% Yeast extract, 2% Bacto peptone and 2% glucose) were harvested, washed and resuspended in RPMI 1640 medium at a density of 2×10^3 cells/mL. RPMI 1640 medium with L-glutamine without sodium bicarbonate (Sigma) was buffered with 0.165 M morpholinepropanesulfonic acid (MOPS) to a pH of 7.0. Two-fold dilutions of hypoculoside and amphotericin B were prepared such that final concentration of DMSO was 1% in all cultures. Cell suspension was distributed in microtiter plate (200 µL/well) and incubated at 35 °C with 220 rpm for 24 h. The Saccharomyces cerevisiae diploid wild-type strain (BY4743) was used for determining the Inhibitory Concentration (IC) of hypoculoside. Frozen yeast cells were allowed to recover on YPD agar plates and grown in YPD medium for nine generations (OD600 nm ≤ 2). Cells were diluted to OD600 nm of 0.0625 in YPD medium. 200 μL of the diluted yeast culture was transferred into the 96-well microtiter plate having 2-fold serially diluted concentrations of hypoculoside. Cells were incubated in a microplate reader for 16–24 hours at 30 °C with shaking. IC of hypoculoside was computed by comparing the growth of treated versus control cells.

[2] = tested on: Pseudomonas aeruginosa (ATCC 9027); assay: Antibacterial growth inhibition assay; assay type: cell-based; details: Gram-negative
Method: (§1) Effect of hypoculoside on the growth of three bacterial strains Staphylococcus aureus (ATCC 25923), Pseudomonas aeruginosa (ATCC 9027) and Klebsiella aerogenes (ATCC 13048) was assessed as previously described. Cytotoxicity of hypoculoside on the A549 human lung cell line and the pancreatic carcinoma cell lines MIA PaCa-2 and PANC-1 was determined as described before. A549 and MIA PaCa-2 were seeded at 1,500 cells per well, and PANC-1 cells were seeded at 2,500 cells per well in a 384-well microplate. Cells were treated with hypoculoside at various concentrations and incubated for 72 hours at 37 °C in the presence of 5% CO2. Cytotoxic effect of hypoculoside was measured using the PrestoBlue™ cell viability reagent (Life Technologies). Following incubation of the microplates with the dye for 2 hours, the fluorescence reading (Excitation/Emission: 560 nm/590 nm) was recorded using the Tecan Infinite M1000 Pro reader.
(§2) Legends for Supplementary figures and tables
(§3) Figure S1 Analysis of hypoculoside by MS/MS
(§4) Collision-Induced dissociation (CID) MS/MS fragmentation spectra of hypoculoside (8) generated at energies of 10 eV, 20 eV and 40 eV are depicted in panels A, B and C […]
(§5) Figure S2 Hypoculoside has antifungal, antibacterial and mammalian cytotoxic […]
(§6) A. Logarithmically growing Candida albicans cells were exposed to hypoculoside and amphotericin B at the indicated concentrations in triplicates in a 96-well microplate. A picture of the microplate after 24 hours of incubation at 30 °C is […]
(§7) B. Saccharomyces cerevisiae cultures in duplicate were treated with hypoculoside at the indicated concentrations in YPD medium at 30 °C for 24 hours. Growth of the yeast cultures as measured by OD600 nm is plotted against hypoculoside concentration. Yeast cells treated with either DMSO or 21 µM hypoculoside for 24 hours were then washed in YPD and plated at different dilutions on a YPD agar and incubated at 30 °C. The YPD agar plate was photographed after 2 […]
C. […]

[3] = tested on: Staphylococcus aureus (ATCC 25923); assay: Antibacterial growth inhibition assay; assay type: cell-based; details: ATCC25923, Gram-positive, read-out: IC50 against Staphylococcus aureus
Method: as §1, §2, §3, §4, §5, §6, §7
C. […]

[4] = tested on: Klebsiella aerogenes (ATCC 13048); assay: Antibacterial growth inhibition assay; assay type: cell-based; details: Gram-negative
Method: as §1, §2, §3, §4, §5, §6, §7
C. […]

[5] = tested on: BY4743 cells; assay: Propidium iodide (PI)-staining assay of plasma membrane integrity; assay type: cell-based, Saccharomyces cerevisiae; details: 5.3 µM, after 2 hours
Method: Figure 8 Hypoculoside but not hypoculine disrupts the membrane integrity of yeast cells. (A) Wild type yeast cells pre-treated with either DMSO or hypoculoside (5.4 μM) were exposed to FM 4-64FX. Uptake of FM 4-64FX after 0′, 30′ and 120′ was analyzed by fluorescence microscopy of fixed cells. (B) Yeast cells were incubated with either DMSO or hypoculoside or hypoculine at different concentrations (1.8, 3.5 and 5.3 µM) for 30′ and 2 hours. They were then treated with propidium iodide (PI) and percentage of PI-staining cells was assayed by fluorescence microscopy. Representative images of cells visualized by bright field and fluorescence microscopy are shown along with quantification of PI-staining cells (N = 100 cells) in (C).
We then tested whether hypoculoside causes membrane leakage using the membrane impermeant dye propidium iodide (PI). […] We then incubated the cells with PI and visualized its uptake by fluorescence microscopy. […]
BY4743 cells (OD600 nm ≈ 1) were exposed to various concentrations of hypoculoside or hypoculine or DMSO in YPD for 30′ and 2 hours. […] PI uptake by cells was assayed by bright-field and fluorescence microscopy [Excitation/Emission (nm): 535/617] and the percentage of PI-staining cells (N ≥ 100) was calculated.

For `CC(N)C(O)CCCCCCCCCCCCCCCCCCC(O)C(C)OC1OC(CO)C(O)C(O)C1O` (stereo not shown) [hypoculoside, Hypoculoside], the “concentration that inhibited the growth of wild type cells” value ([1]; BY4743, YPD, 24 hours at 30 °C (Fig. 5A)) was 11 µM, the IC50 ([1]; Saccharomyces cerevisiae, read-out: IC50 for growth of Saccharomyces cerevisiae cells) was 7.2 µM and the inhibition at 5.5 µM ([1]; Saccharomyces cerevisiae, 5.5 µM, YPD, 24 hours at 30 °C) was 10%. The “inhibitory activity against Pseudomonas aeruginosa” value [2] was “not against Gram-negative bacteria”, the IC50 [3] was 11.7 µM and the “inhibitory activity against Klebsiella aerogenes” value [4] was “not against Gram-negative bacteria”. The “cells that had internalized PI” value [5] was “about 60%”.
